Assay results: the RepoRT retention time repository (doi:10.1021/acs.analchem.2c02893)

Experiment: RP, Thermo Scientific Acclaim RSLC 120 C18, 100 × 2.1 mm, 2.2 µm, 30 °C, 0.2 mL/min, estimated dead time 1.1 min; A: 90% water + 10% methanol + 0.01% formic acid + 5 mM ammonium formate, pH 3.61; B: methanol + 0.01% formic acid + 5 mM ammonium formate, pH 3.61; gradient (min/%B) 0/1 1/1 2/39 13/99.9 15/99.9 15.1/1 20.1/1
Conditions: stereoisomer not certain

| SMILES | LC retention time |
| --- | --- |
| c1ccc(C(CCN2CCCCC2)c2ccccc2)cc1 [Fenpiprane] | 6.82 min |
| O=c1[nH]c(Cl)c(Cl)cc1Cl [3.5.6-Trichloro-2-pyridinol] | 8.96 min |
| CNC(C)C(=O)c1ccc(Br)cc1 (stereo unspecified) [Brefedrone] | 5.05 min |
| Cc1c(C=O)c(=O)n(-c2ccccc2)n1C [4-Formyl-antipyrine] | 3.98 min |
| CN1CCN(C(c2ccccc2)c2ccccc2)CC1 [Cyclizine] | 6.94 min |
| COc1cc(C(=O)c2cnc(N)nc2N)cc(OC)c1OC [Trimethoprim (Impurity B)] | 5.49 min |
| CC(CCc1ccccc1)NCC(O)c1ccc(O)c(C(N)=O)c1 (stereo unspecified) [Labetalol] | 5.74 min |
| CC(=O)NCCCS(=O)(=O)O [Acamprosat] | 1.4 min |
| CC=CC(=O)Oc1c(C(C)CCCCCC)cc([N+](=O)[O-])cc1[N+](=O)[O-] (stereo unspecified) [Dinocap] | 13.1 min |
| Nc1ccc([N+](=O)[O-])cc1C(=O)c1ccccc1 [Benzophenone -2-Amino-5-nitro] | 8.99 min |
| CSc1nc2cc(Oc3cccc(Cl)c3Cl)c(Cl)cc2[nH]1 [Triclabendazole] | 12 min |
| CCCCCCCCCCCCCCN(C)C [N,N-Dimethyltetradecylamine] | 11.8 min |
| COc1cc2c(cc1OC)C(=O)C(CC1CCN(Cc3ccccc3)CC1)C2 (stereo unspecified) [Donepezil] | 5.81 min |
| O=c1oc2ccccc2c(O)c1C(CC(O)c1ccc(-c2ccc(Br)cc2)cc1)c1ccccc1 (stereo unspecified) [Bromadiolone] | 11.5 min |
| CC(=O)N=c1sc(S(N)(=O)=O)nn1C [Methazolamide] | 4.28 min |
| CCCCOc1cc(C(=O)OCCN(CC)CC)ccc1N [Oxybuprocaine] | 5.94 min |
| COCC(C)N(C(=O)CS(=O)(=O)O)c1c(C)csc1C (stereo unspecified) [Dimethenamide-ESA] | 6.28 min |
| CCC(C(=O)O)C1OC(C(C)C(O)C(C)C(=O)C(CC)C2OC3(C=CC(O)C4(CCC(C)(C5CCC(O)(CC)C(C)O5)O4)O3)C(C)CC2C)C(C)CC1C (stereo unspecified) [Narasin] | 16.1 min |
| COP(=O)(OC)C(O)C(Cl)(Cl)Cl (stereo unspecified) [Trichlorfon (Dylox)] | 5.23 min |
| CN1CCC23c4c5ccc(OCCN6CCOCC6)c4OC2C(O)C=CC3C1C5 (stereo unspecified) [Pholcodine] | 2.73 min |
| CC(C)C(NC(=O)c1nn(CCCCCF)c2ccccc12)C(N)=O (stereo unspecified) [AB-PINACA 5F] | 9.12 min |
| CCOP(=O)(SC(C)CC)SC(C)CC (stereo unspecified) [Cadusafos] | 11.5 min |

| SMILES | LC retention time |
| --- | --- |
| CCOC(=O)C1=NN(c2ccc(Cl)cc2Cl)C(C)(C(=O)OCC)C1 (stereo unspecified) [Mefenpyr-diethyl] | 11.1 min |
| CCOc1ccc(C(C)(C)COCc2cccc(Oc3ccccc3)c2)cc1 [Etofenprox] | 14.1 min |
| CNC(=O)ON=C(CSC)C(C)(C)C [Thiofanox] | 7.8 min |
| CCOP(=S)(OCC)Oc1cnccn1 [Thionazin (Zinophos)] | 8.35 min |
| CCOC(=O)C(C)N(C(=O)c1ccccc1)c1ccc(Cl)c(Cl)c1 (stereo unspecified) [Benzoylprop-ethyl] | 11 min |
| CCOC(=O)N(C)C(=O)CSP(=S)(OCC)OCC [Mecarbam] | 10.2 min |
| CC(Cc1ccccc1)N1C=C(NC(=O)N=C2C=CC(=O)C=C2)ON1 (stereo unspecified) [Mesocarb-P-Hydroxy] | 7.24 min |
| O=C1CN=C(c2ccccc2Cl)c2cc([N+](=O)[O-])ccc2N1 [Clonazepam] | 7.61 min |
| O=C1Nc2ccc(Cl)cc2C(c2ccccc2)=NC1O (stereo unspecified) [Oxazepam] | 8.43 min |
| CCC(=O)C(CC(C)N(C)C)(c1ccccc1)c1ccccc1 (stereo unspecified) [Methadone] | 8.04 min |
| CCCSP(=S)(OCC)Oc1ccc(SC)cc1 (stereo unspecified) [Sulprofos (Bolstar)] | 12.8 min |
| CC(=O)c1ccc2c(c1)N(CC(C)N(C)C)c1ccccc1S2 (stereo unspecified) [Aceprometazine] | 7.26 min |
| CN(C)CCOC(c1ccccc1)c1ccccc1 [Diphenhydramine] | 6.63 min |
| CCOC(=O)C1CC(=O)C(=C(O)C2CC2)C(=O)C1 (stereo unspecified) [Trinexapac-ethyl] | 8.45 min |
| Clc1ccc2c(c1)C(c1ccccc1)=NCc1nncn1-2 [Estazolam] | 8.14 min |
| Nc1ccc2c(c1)C(c1ccccc1F)=NCC(=O)N2 [Flunitrazepam-7-Amino-desmethyl] | 4.62 min |
| CCC(C(=O)c1ccc2c(c1)OCO2)N1CCCC1 (stereo unspecified) [MDPBP] | 4.49 min |
| CCC1(c2cccc(O)c2)CCCCN(C)C1 (stereo unspecified) [Meptazinol] | 4.74 min |
| Cc1nc(C)c(Cl)c(NS(=O)(=O)c2ccc(N)cc2)n1 [Sulfaclomide] | 3.96 min |
| CC(C)(O)c1ccccc1CCC(SCC1(CC(=O)O)CC1)c1cccc(C=Cc2ccc3ccc(Cl)cc3n2)c1 (stereo unspecified) [Montelukast] | 13.4 min |
| O=c1cn[nH][nH]1 [1 2 3-triazole-5-OH (1.2.3)] | 5.99 min |
| CCOP(=S)(OCC)Oc1ccc([N+](=O)[O-])cc1 [Parathion] | 10.7 min |

| SMILES | LC retention time |
| --- | --- |
| CN1CCN(c2c(F)cc3c(=O)c(C(=O)O)cn4c3c2OCN4C)CC1 [Marbofloxacin] | 4.18 min |
| COC(=O)C(NC(=O)c1nn(CC2CCCCC2)c2ccccc12)C(C)(C)C (stereo unspecified) [MDMB-CHMINACA (MDMB-CHMICA)] | 12.9 min |
| CCCc1cc(=O)[nH]c(=S)[nH]1 [Propylthiouracil] | 4.51 min |
| CC(CN1c2ccccc2Sc2ccccc21)N(C)C (stereo unspecified) [Promethazine] | 7.53 min |
| CC1(C)OC2CC3C4CCC5=CC(=O)C=CC5(C)C4C(O)CC3(C)C2(C(=O)CO)O1 (stereo unspecified) [Desonide] | 9.04 min |
| COc1ccc(C(O)(c2cncnc2)C2CC2)cc1 (stereo unspecified) [Ancymidol] | 7.15 min |
| COP(=S)(OC)Oc1c(Cl)cc(C)cc1Cl [Tolclofos-methyl] | 11.4 min |
| CN(C)C(=O)C(c1ccccc1)c1ccccc1 [Diphenamide] | 8.57 min |
| CC12CCC3C4CCC(=O)C=C4CCC3C1CCC2OC(=O)CCc1ccccc1 (stereo unspecified) [Nandrolone phenylpropionate] | 13.6 min |
| CNC(=O)ON=C(C)SC [Methomyl] | 4.16 min |
| CC1COc2ccccc2N1C(=O)C(Cl)Cl (stereo unspecified) [Benoxacor] | 8.87 min |
| COC(=O)C(Cl)Cc1ccc(Cl)cc1 (stereo unspecified) [Chlorfenprop-methyl] | 10.2 min |
| C=CC=CCC1=C(C)C(OC(=O)C2C(C=C(C)C(=O)OC)C2(C)C)CC1=O (stereo unspecified) [Pyrethrin II] | 11.7 min |
| COc1ccc2c3c1OC1C(O)C=CC4C(C2)NCCC341 (stereo unspecified) [Codeine-Nor] | 3.5 min |
| COP(=O)(OC)OC(=CCl)c1ccc(Cl)cc1Cl [Dimethylvinphos] | 9.86 min |
| CC(N)Cc1c[nH]c2ccccc12 (stereo not drawn) [AMT (Alpha-Methyltryptamine)] | 4.44 min |
| CC(C)OC(=O)C(O)(c1ccc(Br)cc1)c1ccc(Br)cc1 [Bromopropylate] | 12.5 min |
| CC(C)C1(C)N=C(c2nc3ccccc3cc2C(=O)O)NC1=O (stereo unspecified) [Imazaquin] | 6.1 min |
| c1ccc2[nH]c(-c3cscn3)nc2c1 [Thiabendazole] | 6.15 min |
| O=C1NCC(=O)N2C1Cc1c([nH]c3ccccc13)C2c1ccc2c(c1)OCO2 (stereo unspecified) [Tadalafil-Nor] | 7.99 min |
| CN(C)NC(=O)CCC(=O)O [Daminozide] | 2.18 min |
| C=CCN1CCC23c4c5ccc(O)c4OC2C(=O)CCC3(O)C1C5 (stereo unspecified) [Naloxone] | 3.44 min |

| SMILES | LC retention time |
| --- | --- |
| COc1nn(CSP(=S)(OC)OC)c(=O)s1 [Methidathion] | 8.7 min |
| Nc1ncnc2c1ncn2Cc1c(F)cccc1Cl [Arprinocid] | 6.7 min |
| CC(C)CNC(=O)N1CCNC1=O [Isocarbamid (Azolamide)] | 5.74 min |
| CSc1ccc2c(c1)N(CCC1CCCCN1C)c1ccccc1S2 (stereo unspecified) [Thioridazine] | 9.34 min |
| O=C(Oc1cccc2ccccc12)c1cn(Cc2ccc(F)cc2)c2ccccc12 [FDU-PB-22] | 12.6 min |
| Cc1ncc([N+](=O)[O-])n1C [Dimetridazole] | 4.27 min |
| N=C(N)N1CCc2ccccc2C1 [Debrisoquine] | 4.39 min |
| CNC(=O)Oc1cc(C)c(S(C)=O)c(C)c1 (stereo unspecified) [Methiocarb-sulfoxide] | 4.86 min |
| Nc1ccc(S(=O)(=O)Nc2ccc(Cl)nn2)cc1 [Sulfachloropyridazine] | 4.56 min |
| CN1CCN(C2=Nc3cc(Cl)ccc3Nc3ccccc32)CC1 [Clozapine] | 7.19 min |
| O=S(=O)(c1ccc(Cl)cc1)c1cc(Cl)c(Cl)cc1Cl [Tetradifon] | 12.2 min |
| CCCCCCCCSC(=O)Oc1cc(Cl)nnc1-c1ccccc1 [Pyridate] | 13.8 min |
| CC[N+]([O-])(CC)CC(=O)Nc1c(C)cccc1C [Lidocaine-N-oxide] | 5.34 min |
| CNC(C)C(=O)c1ccc(C)cc1 (stereo unspecified) [Mephedrone] | 4.49 min |
| C=CCOC(=O)C(C)(C)OC(=O)c1cc(-n2c(=O)cc(C(F)(F)F)n(C)c2=O)ccc1Cl [Butafenacil] | 9.89 min |
| C[N+]12CCC(CC1)C(OC(=O)C(O)(c1ccccc1)c1ccccc1)C2 (stereo unspecified) [Clidinium (I+)] | 5.84 min |
| OC1(c2ccc(Cl)c(C(F)(F)F)c2)CCN(CCCC(c2ccc(F)cc2)c2ccc(F)cc2)CC1 [Penfluridol] | 10.1 min |
| CC(=O)Oc1ccccc1C(=O)O [Acetylsalicylic acid_NH4 adduct] | 4.8 min |
| CC1(C)CC1C(=O)NC(=CCCCCSCC(N)C(=O)O)C(=O)O (stereo unspecified) [Cilastatin] | 4.88 min |
| CN1CCCC1Cc1c[nH]c2ccc(CCS(=O)(=O)c3ccccc3)cc12 (stereo unspecified) [Eletriptan] | 5.51 min |
